In publication PMC4795174 (Biochemistry, 2015):

Biological target: BlaC (β-lactamase) (Mycobacterium tuberculosis, UniProt P9WKD3)
Type: biochemical
Conditions: read-out: KI

Sequence of BlaC (β-lactamase) (P9WKD3 41-307): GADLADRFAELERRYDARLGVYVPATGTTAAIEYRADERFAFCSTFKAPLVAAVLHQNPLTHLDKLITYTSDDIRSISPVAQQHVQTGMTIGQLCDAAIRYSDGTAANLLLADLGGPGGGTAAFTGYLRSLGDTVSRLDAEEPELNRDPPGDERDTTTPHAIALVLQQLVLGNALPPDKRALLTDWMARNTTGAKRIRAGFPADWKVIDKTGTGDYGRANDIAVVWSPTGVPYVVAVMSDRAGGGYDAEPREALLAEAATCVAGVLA

O=C(O)[C@H]1/C(=C/CO)O[C@@H]2CC(=O)N21 [clavulanate]
KI (inactivation): 6.3 µM
